According to US12371454B2, “Cyclic peptide compound having Kras inhibitory action” (priority 2019, dated 2025):
Starred links: 1 amine or outer side, 2 acyl side, 3 side chain; linkers in the order of their positions; H or OH if unused. Positions of bridges follow the written chain, without caps; N, C: chain ends. Non-standard residues stand in square brackets, D forms with d. Residues, ends and D or L forms follow the SMILES beside them. *: point of attachment. hPhe(3-Cl-4-CF3) = N[C@@H](CCc1ccc(C(F)(F)F)c(Cl)c1)C(=O)O; hPhe(3-F,4-CF3) = N[C@@H](CCc1ccc(C(F)(F)F)c(F)c1)C(=O)O; Pro(trans-4-Ph) = O=C(O)[C@@H]1C[C@@H](c2ccccc2)CN1; 3Oxa8azabicyclo(3.2.1)octane = C1CC2COCC1N2*; NMePhe(4-Cl) = CN[C@@H](Cc1ccc(Cl)cc1)C(=O)O; NMeNle(6-CHF2) = CN[C@@H](CCCCC(F)F)C(=O)O; NMedβ3hAla = C[C@H](CC(=O)[*:2])N(C)[*:1]; NMeAla(cPent) = CN[C@@H](CC1CCCC1)C(=O)O; NMeGly(cPent) = CN[C@H](C(=O)O)C1CCCC1; NMeGly(cBu) = CN[C@H](C(=O)O)C1CCC1; NMeCha = CN[C@@H](CC1CCCCC1)C(=O)O; NMeGly(cPr) = CN[C@H](C(=O)O)C1CC1; NMeAhp(2) = CCCCC[C@H](NC)C(=O)O; NMeChg = CN[C@H](C(=O)O)C1CCCCC1; NMeI = CC[C@H](C)[C@H](NC)C(=O)O; Gly(cBu) = N[C@H](C(=O)O)C1CCC1; NMeD = CN[C@@H](CC(=O)O)C(=O)O; NMeL = CN[C@@H](CC(C)C)C(=O)O; NMeV = CN[C@H](C(=O)O)C(C)C; d(β3hA) = C[C@@H](N)CC(=O)O; Azetidin(1-yl) = C1CN(*)C1; NMeS = CN[C@@H](CO)C(=O)O; Morpholide = C1CN(*)CCO1; NMeA = CN[C@@H](C)C(=O)O; Piperidide = C1CCN(*)CC1; Pyrrolidide = C1CCN(*)C1; Ac5c = NC1(C(=O)O)CCCC1; Aze = O=C(O)[C@@H]1CCN1; NEtG = CCNCC(=O)O; Sar = CNCC(=O)O; Propyl = CCC*

System: Human pancreatic cancer cell line AsPC-1
Experiment: Measurement of AsPC-1 cell growth inhibition (AsPC-1 CGI)
Assay type: cell-based
Conditions: 96 h
Experimental: Measurement of AsPC-1 Cell Growth Inhibition (AsPC-1 CGI)
Test compounds were serially diluted with dimethyl sulfoxide, and 200 nL was then dispensed to a U-bottom 96-well plate using Labcyte Echo. Human pancreatic cancer cell line AsPC-1 was suspended in RPMI-1640 medium supplemented with 15% fetal bovine serum to prepare a cell suspension at 1000 cells/100 μL. The cell suspension was dispensed to a plate containing a test compound at 100 μL per well and incubated at 37° C. in a 5% carbon dioxide gas incubator. 96 hours later, 80 μL of CellTiter-Glo (Promega) was added to each well and […] was measured.

SMILES	IC50 [nM]
CC[C@H](C)[C@@H]1NC(=O)[C@H](CC(C)C)N(C)C(=O)C[C@@H](C)N(C)C(=O)[C@H](C(C)C)N(C)C(=O)C2(CCCC2)NC(=O)[C@@H]2CCCN2C(=O)[C@H](CCc2ccc(C(F)(F)F)c(Cl)c2)NC(=O)CN(C)C(=O)[C@H](CC2CCCC2)N(C)C(=O)CN(C)C(=O)CN(C)C1=O [Compound 88] (cyclo([Ac5c][NMeV][NMedβ3hAla][NMeL]I[Sar][Sar][NMeAla(cPent)][Sar][hPhe(3-Cl-4-CF3)]P))	50 to 100
CC[C@H](C)[C@@H]1NC(=O)[C@H](CC(C)C)N(C)C(=O)C[C@@H](C(=O)N2CCCCC2)N(C)C(=O)[C@H](C2CCCCC2)N(C)C(=O)C2(CCCC2)NC(=O)[C@@H]2C[C@@H](c3ccccc3)CN2C(=O)[C@H](CCc2ccc(C(F)(F)F)c(Cl)c2)NC(=O)CN(C)C(=O)[C@H](CC2CCCCC2)N(C)C(=O)CN(C)C(=O)CN(C)C1=O [Compound 90] ([NMeL]I[Sar][Sar][NMeCha][Sar][hPhe(3-Cl-4-CF3)][Pro(trans-4-Ph)][Ac5c][NMeChg][NMeD]-Piperidide; lactam N-11)	100 to 500
CC[C@H](C)[C@@H]1NC(=O)[C@H](CCCCC(F)F)N(C)C(=O)C[C@@H](C(=O)N2CCCCC2)N(C)C(=O)[C@H](C(C)C)N(C)C(=O)C2(CCCC2)NC(=O)[C@@H]2CCCN2C(=O)[C@H](CCc2ccc(C(F)(F)F)c(Cl)c2)NC(=O)CN(C)C(=O)[C@H](CC2CCCCC2)N(C)C(=O)[C@@H]2CCN2C(=O)[C@H](C)N(C)C1=O [Compound 94] ([NMeNle(6-CHF2)]I[NMeA][Aze][NMeCha][Sar][hPhe(3-Cl-4-CF3)]P[Ac5c][NMeV][NMeD]-Piperidide; lactam N-11)	100 to 500
CC[C@H](C)[C@@H]1NC(=O)[C@H](C2CC2)N(C)C(=O)C[C@@H](C(=O)N2CCCCC2)N(C)C(=O)[C@H](C(C)C)N(C)C(=O)C2(CCCC2)NC(=O)[C@@H]2CCCN2C(=O)[C@H](CCc2ccc(C(F)(F)F)c(Cl)c2)NC(=O)CN(C)C(=O)[C@H](CC2CCCCC2)N(C)C(=O)[C@@H]2CCN2C(=O)[C@H](C)N(C)C1=O [Compound 100] ([NMeGly(cPr)]I[NMeA][Aze][NMeCha][Sar][hPhe(3-Cl-4-CF3)]P[Ac5c][NMeV][NMeD]-Piperidide; lactam N-11)	100 to 500
CC[C@H](C)[C@@H]1NC(=O)[C@H](CC(C)C)N(C)C(=O)C[C@@H](C(=O)N2CCCCC2)N(C)C(=O)[C@H](C2CCCC2)N(C)C(=O)C2(CCCC2)NC(=O)[C@@H]2CCCN2C(=O)[C@H](CCc2ccc(C(F)(F)F)c(Cl)c2)NC(=O)CN(C)C(=O)[C@H](C2CCC2)N(C)C(=O)[C@@H]2CCN2C(=O)[C@H](C)N(C)C1=O [Compound 127] ([NMeL]I[NMeA][Aze][NMeGly(cBu)][Sar][hPhe(3-Cl-4-CF3)]P[Ac5c][NMeGly(cPent)][NMeD]-Piperidide; lactam N-11)	20 to 50
CCCCC[C@H]1C(=O)N[C@@H]([C@@H](C)CC)C(=O)N[C@@H](C)C(=O)N2CC[C@H]2C(=O)N(C)[C@@H](CC2CCCCC2)C(=O)N(C)CC(=O)N[C@@H](CCc2ccc(C(F)(F)F)c(Cl)c2)C(=O)N2CCC[C@H]2C(=O)NC2(CCCC2)C(=O)N(C)[C@@H](C2CCCC2)C(=O)N(C)[C@H](C(=O)N2CCC2)CC(=O)N1C [Compound 155] ([NMeAhp(2)]IA[Aze][NMeCha][Sar][hPhe(3-Cl-4-CF3)]P[Ac5c][NMeGly(cPent)][NMeD]-{Azetidin(1-yl)}; lactam N-11)	20 to 50
CC(C)C[C@H]1C(=O)N[C@@H](C2CCC2)C(=O)N(C)[C@@H](C)C(=O)N2CC[C@H]2C(=O)N(C)[C@@H](CC2CCCCC2)C(=O)N(C)CC(=O)N[C@@H](CCc2ccc(C(F)(F)F)c(Cl)c2)C(=O)N2CCC[C@H]2C(=O)NC2(CCCC2)C(=O)N(C)[C@@H](C(C)C)C(=O)N(C)[C@H](C(=O)N2CCCCC2)CC(=O)N1C [Compound 157] ([NMeL][Gly(cBu)][NMeA][Aze][NMeCha][Sar][hPhe(3-Cl-4-CF3)]P[Ac5c][NMeV][NMeD]-Piperidide; lactam N-11)	100 to 500
CC[C@H](C)[C@@H]1NC(=O)[C@H](CC(C)C)N(C)C(=O)C[C@@H](C(=O)N2CCCCC2)N(C)C(=O)[C@H](C2CCCCC2)N(C)C(=O)C2(CCCC2)NC(=O)CN(CC)C(=O)[C@H](CCc2ccc(C(F)(F)F)c(Cl)c2)NC(=O)CN(C)C(=O)[C@H](CC2CCCCC2)N(C)C(=O)CN(C)C(=O)CN(C)C1=O [Compound 160] ([NMeL]I[Sar][Sar][NMeCha][Sar][hPhe(3-Cl-4-CF3)][NEtG][Ac5c][NMeChg][NMeD]-Piperidide; lactam N-11)	50 to 100
CCCCC[C@H]1C(=O)N[C@@H]([C@@H](C)CC)C(=O)N[C@@H](C)C(=O)N2CC[C@H]2C(=O)N(C)[C@@H](COCCC)C(=O)N(C)CC(=O)N[C@@H](CCc2ccc(C(F)(F)F)c(Cl)c2)C(=O)N2CCC[C@H]2C(=O)NC2(CCCC2)C(=O)N(C)[C@@H](C2CCCC2)C(=O)N(C)[C@H](C(=O)N2C3CCC2COC3)CC(=O)N1C [Compound 163] ([NMeAhp(2)]IA[Aze][NMeS](Propyl)[Sar][hPhe(3-Cl-4-CF3)]P[Ac5c][NMeGly(cPent)][NMeD]-{3Oxa8azabicyclo(3.2.1)octane}; lactam N-11)	50 to 100
CC[C@H](C)[C@@H]1NC(=O)[C@H](CC(C)C)N(C)C(=O)C[C@@H](C(=O)N2CCCCC2)N(C)C(=O)[C@H](C2CCCC2)N(C)C(=O)C2(CCCC2)NC(=O)[C@@H]2CCCN2C(=O)[C@H](CCc2ccc(C(F)(F)F)c(Cl)c2)NC(=O)CN(C)C(=O)[C@H](C2CCCC2)N(C)C(=O)[C@@H]2CCN2C(=O)[C@H](C)N(C)C1=O [Compound 182] ([NMeL]I[NMeA][Aze][NMeGly(cPent)][Sar][hPhe(3-Cl-4-CF3)]P[Ac5c][NMeGly(cPent)][NMeD]-Piperidide; lactam N-11)	20 to 50
CC[C@H](C)[C@@H]1NC(=O)[C@H](CC(C)C)N(C)C(=O)C[C@@H](C(=O)N2CCCC2)N(C)C(=O)[C@H](C2CCCC2)N(C)C(=O)C2(CCCC2)NC(=O)[C@@H]2CCCN2C(=O)[C@H](CCc2ccc(C(F)(F)F)c(Cl)c2)NC(=O)CN(C)C(=O)[C@H](C2CCCC2)N(C)C(=O)[C@@H]2CCN2C(=O)[C@H](C)N(C)C1=O [Compound 201] ([NMeL]I[NMeA][Aze][NMeGly(cPent)][Sar][hPhe(3-Cl-4-CF3)]P[Ac5c][NMeGly(cPent)][NMeD]-Pyrrolidide; lactam N-11)	20 to 50
CC[C@H](C)[C@@H]1NC(=O)[C@H](CC(C)C)N(C)C(=O)C[C@@H](C)NC(=O)[C@H](C(C)C)N(C)C(=O)C2(CCCC2)NC(=O)[C@@H]2CCCN2C(=O)[C@H](CCc2ccc(C(F)(F)F)c(Cl)c2)NC(=O)CN(C)C(=O)[C@H](Cc2ccc(Cl)cc2)N(C)C(=O)[C@@H]2CCN2C(=O)CN(C)C1=O [Compound 207] (cyclo([Ac5c][NMeV][d(β3hA)][NMeL]I[Sar][Aze][NMePhe(4-Cl)][Sar][hPhe(3-Cl-4-CF3)]P))	100 to 500
CC[C@H](C)[C@@H]1NC(=O)[C@H](C2CCCC2)N(C)C(=O)C[C@@H](C(=O)N2CCCCC2)N(C)C(=O)[C@H](C(C)C)N(C)C(=O)C2(CCCC2)NC(=O)[C@@H]2CCCN2C(=O)[C@H](CCc2ccc(C(F)(F)F)c(Cl)c2)NC(=O)CN(C)C(=O)[C@H](CC2CCCCC2)N(C)C(=O)[C@@H]2CCN2C(=O)[C@H](C)N(C)C1=O [Compound 225] ([NMeGly(cPent)]I[NMeA][Aze][NMeCha][Sar][hPhe(3-Cl-4-CF3)]P[Ac5c][NMeV][NMeD]-Piperidide; lactam N-11)	100 to 500
CCCOC[C@H]1C(=O)N(C)CC(=O)N[C@@H](CCc2ccc(C(F)(F)F)c(F)c2)C(=O)N2CCC[C@H]2C(=O)NC2(CCCC2)C(=O)N(C)[C@@H]([C@@H](C)CC)C(=O)N(C)[C@H](C(=O)N2CCCCC2)CC(=O)N(C)[C@@H](CC(C)C)C(=O)N[C@@H]([C@@H](C)CC)C(=O)N(C)[C@@H](C)C(=O)N2CC[C@H]2C(=O)N1C [Compound 236] ([NMeL]I[NMeA][Aze][NMeS](Propyl)[Sar][hPhe(3-F,4-CF3)]P[Ac5c][NMeI][NMeD]-Piperidide; lactam N-11)	20 to 50
CC[C@H](C)[C@@H]1NC(=O)[C@H](CC(C)C)N(C)C(=O)C[C@@H](C(=O)N2CCCCC2)N(C)C(=O)[C@H](C2CCCCC2)N(C)C(=O)C2(CCCC2)NC(=O)[C@@H]2CCCN2C(=O)[C@H](CCc2ccc(C(F)(F)F)c(Cl)c2)NC(=O)CN(C)C(=O)[C@H](CC2CCCCC2)N(C)C(=O)[C@@H]2CCN2C(=O)[C@H](C)N(C)C1=O [Compound 249] ([NMeL]I[NMeA][Aze][NMeCha][Sar][hPhe(3-Cl-4-CF3)]P[Ac5c][NMeChg][NMeD]-Piperidide; lactam N-11)	100 to 500
CC[C@H](C)[C@@H]1NC(=O)[C@H](CC(C)C)N(C)C(=O)C[C@@H](C(=O)N2CCC2)N(C)C(=O)[C@H](C(C)C)N(C)C(=O)C2(CCCC2)NC(=O)[C@@H]2CCCN2C(=O)[C@H](CCc2ccc(C(F)(F)F)c(Cl)c2)NC(=O)CN(C)C(=O)[C@H](CC2CCCCC2)N(C)C(=O)[C@@H]2CCN2C(=O)[C@H](C)N(C)C1=O [Compound 256] ([NMeL]I[NMeA][Aze][NMeCha][Sar][hPhe(3-Cl-4-CF3)]P[Ac5c][NMeV][NMeD]-{Azetidin(1-yl)}; lactam N-11)	100 to 500
CCCCC[C@H]1C(=O)N[C@@H]([C@@H](C)CC)C(=O)N[C@@H](C)C(=O)N2CC[C@H]2C(=O)N(C)[C@@H](CC2CCCCC2)C(=O)N(C)CC(=O)N[C@@H](CCc2ccc(C(F)(F)F)c(Cl)c2)C(=O)N2CCC[C@H]2C(=O)NC2(CCCC2)C(=O)N(C)[C@@H](C2CCCC2)C(=O)N(C)[C@H](C(=O)N2CCOCC2)CC(=O)N1C [Compound 263] ([NMeAhp(2)]IA[Aze][NMeCha][Sar][hPhe(3-Cl-4-CF3)]P[Ac5c][NMeGly(cPent)][NMeD]-Morpholide; lactam N-11)	20 to 50
